In US8246942B2, “Microbicidal compositions” (LANXESS Deutschland GmbH, priority 2000, dated 2012):
Where two headings read alike, the source gives them in different places. Values belong to the molecule of their own block, whether it stands above or below them.

Test system: Pseudomonas fluorescens
Experiment: Determination of the minimum inhibitory concentration (MIC) against Pseudomonas fluorescens
Format: cell-based
Conditions: for MIC: Pseudomonas fluorescens, read-out: MIC value against Pseudomonas fluorescens
Source text: The observed synergism of the active compound mixtures, claimed in the present application, consisting of o-phenylphenol (OPP) and other bactericides can be determined by the following mathematical equation (see F. C. Kull, P. C. Elisman, H. D. Sylwestrowicz and P. K. Mayer, Appl. Microbiol. 9, 538 (1960):
[formula] where • Qa=the amount of component A in the active compound mixture which achieves the desired effect, i.e. no microbial growth. • QA=the amount of component A which, when used on its own, suppresses the growth of the microorganisms. • Qb=the amount of component B in the active compound mixture which suppresses the growth of the microorganisms. • Qb=the amount of component B which, when used on its own, suppresses the growth of the microorganisms.
A synergistic index of <1 indicates a synergistic effect for the active compound mixture.
Determination of the Minimum Inhibitory Concentration (MIC) of Compositions According to the Invention Against Pseudomonas fluerescens

[1] = Example 2, OPP/Tektamer 38, weight ratios

MIC (Example 1, OPP/BNPD (bronopol), weight ratios): 35 µg/mL
SMILES: O=[N+]([O-])C(Br)(CO)CO [BNPD, 2-bromo-2-nitro-1,3-propanediol]

SMILES: Cn1sccc1=O [MIT, 2-methyl-2H-isothiazol-3-one]
MIC: 30 µg/mL

SMILES: Oc1ccccc1-c1ccccc1 [OPP, o-phenylphenol]
MIC value against Pseudomonas fluorescens [1]: 500 mg/L
MIC value against Pseudomonas fluorescens (Example 3, OPP/MIT, weight ratios): 500 mg/L
MIC: 500 µg/mL

MIC [1]: 100 µg/mL
SMILES: N#CCCC(Br)(C#N)CBr (stereo not drawn) [Tektamer 38, 1,2-dibromo-2,4-dicyanobutane]
